# In PubChem BioAssay AID1963971 (Molecular Pharmacology Branch, DTP, NCI, 2024):
# pIC50: −log10 of the molar value.
# Tested on: 953936-095-R-J2-PDC spheroids with HUVEC/MSC, viability
# Assay: Anticancer human tumor 953936-095-R-J2-PDC patient-derived cervical squamous cell carcinoma cell line growth inhibition [PI3K]
# Conditions: for pIC50: curve of first compound; for viability, T/C: stronger effect = lower value
# How it was run: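 Tumor cells grown as multi-cell spheroids with HUVEC endothelial cells and MSC fibroblast-like stroma were treated with targeted agents combined with inavolisib, alpelisib, duvelisib or copanlisib. Doses fell in half-log steps from near clinical Cmax, else from 10 microM. Viability was measured.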
# [1] = second compound 0.0316 µM, first compound 0.0316 µM
# [2] = second compound 0.0316 µM, first compound 0.1 µM
# [3] = second compound 0.0316 µM, first compound 0.316 µM
# [4] = second compound 0.0316 µM, first compound 1 µM
# [5] = second compound 0.1 µM, first compound 0.0316 µM
# [6] = second compound 0.1 µM, first compound 0.1 µM
# [7] = second compound 0.1 µM, first compound 0.316 µM
# [8] = second compound 0.1 µM, first compound 1 µM
# [9] = second compound 0.316 µM, first compound 0.0316 µM
# [10] = second compound 0.316 µM, first compound 0.1 µM
# [11] = second compound 0.316 µM, first compound 0.316 µM
# [12] = second compound 0.316 µM, first compound 1 µM
# [13] = second compound 1 µM, first compound 0.0316 µM
# [14] = second compound 1 µM, first compound 0.1 µM
# [15] = second compound 1 µM, first compound 0.316 µM
# [16] = second compound 1 µM, first compound 1 µM
# [17] = second compound 3.16 µM, first compound 0.0316 µM
# [18] = second compound 3.16 µM, first compound 0.1 µM
# [19] = second compound 3.16 µM, first compound 0.316 µM
# [20] = second compound 3.16 µM, first compound 1 µM
# [21] = second compound 10 µM, first compound 0.0316 µM
# [22] = second compound 10 µM, first compound 0.1 µM
# [23] = second compound 10 µM, first compound 0.316 µM
# [24] = second compound 10 µM, first compound 1 µM
# [25] = second compound 0.0316 µM, first compound 0.00316 µM
# [26] = second compound 0.0316 µM, first compound 0.01 µM
# [27] = second compound 0.1 µM, first compound 0.00316 µM
# [28] = second compound 0.1 µM, first compound 0.01 µM
# [29] = second compound 0.316 µM, first compound 0.00316 µM
# [30] = second compound 0.316 µM, first compound 0.01 µM
# [31] = second compound 1 µM, first compound 0.00316 µM
# [32] = second compound 1 µM, first compound 0.01 µM
# [33] = second compound 3.16 µM, first compound 0.00316 µM
# [34] = second compound 3.16 µM, first compound 0.01 µM
# [35] = second compound 10 µM, first compound 0.00316 µM
# [36] = second compound 10 µM, first compound 0.01 µM
# 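Note: spheroids exposed to compounds for seven days before read-out.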
smiles,measurement,setting,value
CC(C)NCC(C(=O)N1CCN(c2ncnc3c2C(C)CC3O)CC1)c1ccc(Cl)cc1 (stereo unspecified) + CC(Nc1ncnc2nc[nH]c12)c1cc2cccc(Cl)c2c(=O)n1-c1ccccc1,pIC50,second compound 0.0316 µM,6.02
same,pIC50,second compound 0.1 µM,6.00
same,pIC50,second compound 0.316 µM,6.04
same,pIC50,second compound 1 µM,5.98
same,pIC50,second compound 3.16 µM,6.06
same,pIC50,second compound 10 µM,6.41
same,"viability, T/C",[1],94.7%
same,"viability, T/C",[2],99.8%
same,"viability, T/C",[3],77.9%
same,"viability, T/C",[4],49.6%
same,"viability, T/C","second compound 0.0316 µM, first compound 3.16 µM",22.6%
same,"viability, T/C","second compound 0.0316 µM, first compound 10 µM",14.1%
same,"viability, T/C",[5],100%
same,"viability, T/C",[6],104%
same,"viability, T/C",[7],75.8%
same,"viability, T/C",[8],52.5%
same,"viability, T/C","second compound 0.1 µM, first compound 3.16 µM",24.3%
same,"viability, T/C","second compound 0.1 µM, first compound 10 µM",14.3%
same,"viability, T/C",[9],111%
same,"viability, T/C",[10],98.1%
same,"viability, T/C",[11],82%
same,"viability, T/C",[12],47.9%
same,"viability, T/C","second compound 0.316 µM, first compound 3.16 µM",23.1%
same,"viability, T/C","second compound 0.316 µM, first compound 10 µM",17.1%
same,"viability, T/C",[13],104%
same,"viability, T/C",[14],82.9%
same,"viability, T/C",[15],73.5%
same,"viability, T/C",[16],53.9%
same,"viability, T/C","second compound 1 µM, first compound 3.16 µM",26.2%
same,"viability, T/C","second compound 1 µM, first compound 10 µM",13.4%
same,"viability, T/C",[17],79.7%
same,"viability, T/C",[18],79.1%
same,"viability, T/C",[19],72.9%
same,"viability, T/C",[20],45.7%
same,"viability, T/C","second compound 3.16 µM, first compound 3.16 µM",23.6%
same,"viability, T/C","second compound 3.16 µM, first compound 10 µM",12.7%
same,"viability, T/C",[21],61.1%
same,"viability, T/C",[22],58.3%
same,"viability, T/C",[23],51.7%
same,"viability, T/C",[24],40%
same,"viability, T/C","second compound 10 µM, first compound 3.16 µM",20.1%
same,"viability, T/C","second compound 10 µM, first compound 10 µM",9.46%
CCN1CCN(Cc2ccc(Nc3ncc(F)c(-c4cc(F)c5nc(C)n(C(C)C)c5c4)n3)nc2)CC1 + CC(Nc1ncnc2nc[nH]c12)c1cc2cccc(Cl)c2c(=O)n1-c1ccccc1,pIC50,second compound 0.0316 µM,< 6.00
same,pIC50,second compound 0.1 µM,< 6.00
same,pIC50,second compound 0.316 µM,< 6.00
same,pIC50,second compound 1 µM,< 6.00
same,pIC50,second compound 3.16 µM,< 6.00
same,pIC50,second compound 10 µM,< 6.00
same,"viability, T/C",[25],102%
same,"viability, T/C",[26],101%
same,"viability, T/C",[1],96.1%
same,"viability, T/C",[2],103%
same,"viability, T/C",[3],87.5%
same,"viability, T/C",[4],89.1%
same,"viability, T/C",[27],104%
same,"viability, T/C",[28],106%
same,"viability, T/C",[5],111%
same,"viability, T/C",[6],93%
same,"viability, T/C",[7],86%
same,"viability, T/C",[8],81.3%
same,"viability, T/C",[29],100%
same,"viability, T/C",[30],108%
same,"viability, T/C",[9],103%
same,"viability, T/C",[10],90.5%
same,"viability, T/C",[11],83.8%
same,"viability, T/C",[12],79.2%
same,"viability, T/C",[31],97%
same,"viability, T/C",[32],97.7%
same,"viability, T/C",[13],104%
same,"viability, T/C",[14],82.9%
same,"viability, T/C",[15],76%
same,"viability, T/C",[16],74.2%
same,"viability, T/C",[33],87.8%
same,"viability, T/C",[34],78.6%
same,"viability, T/C",[17],81.8%
same,"viability, T/C",[18],73.9%
same,"viability, T/C",[19],71.1%
same,"viability, T/C",[20],64%
same,"viability, T/C",[35],59.6%
same,"viability, T/C",[36],57.2%
same,"viability, T/C",[21],57.2%
same,"viability, T/C",[22],62.1%
same,"viability, T/C",[23],52.8%
same,"viability, T/C",[24],49.8%
Cn1ncnc1[C@H]1c2n[nH]c(=O)c3cc(F)cc(c23)N[C@@H]1c1ccc(F)cc1 + CC(Nc1ncnc2nc[nH]c12)c1cc2cccc(Cl)c2c(=O)n1-c1ccccc1,pIC50,second compound 0.0316 µM,< 7.00
same,pIC50,second compound 0.1 µM,< 7.00
same,pIC50,second compound 0.316 µM,< 7.00
same,pIC50,second compound 1 µM,< 7.00
same,pIC50,second compound 3.16 µM,< 7.00
same,pIC50,second compound 10 µM,< 7.00
same,"viability, T/C","second compound 0.0316 µM, first compound 0.000316 µM",110%
same,"viability, T/C","second compound 0.0316 µM, first compound 0.001 µM",95.1%
same,"viability, T/C",[25],104%
same,"viability, T/C",[26],98.8%
same,"viability, T/C",[1],91.7%
same,"viability, T/C",[2],96.7%
same,"viability, T/C","second compound 0.1 µM, first compound 0.000316 µM",100%
same,"viability, T/C","second compound 0.1 µM, first compound 0.001 µM",99.3%
same,"viability, T/C",[27],105%
same,"viability, T/C",[28],99.7%
same,"viability, T/C",[5],101%
same,"viability, T/C",[6],90.1%
same,"viability, T/C","second compound 0.316 µM, first compound 0.000316 µM",99.5%
same,"viability, T/C","second compound 0.316 µM, first compound 0.001 µM",96.8%
same,"viability, T/C",[29],110%
same,"viability, T/C",[30],92.9%
same,"viability, T/C",[9],101%
same,"viability, T/C",[10],91.9%
same,"viability, T/C","second compound 1 µM, first compound 0.000316 µM",104%
same,"viability, T/C","second compound 1 µM, first compound 0.001 µM",90.7%
same,"viability, T/C",[31],90.2%
same,"viability, T/C",[32],84%
same,"viability, T/C",[13],101%
same,"viability, T/C",[14],86.9%
same,"viability, T/C","second compound 3.16 µM, first compound 0.000316 µM",87.2%
same,"viability, T/C","second compound 3.16 µM, first compound 0.001 µM",78.5%
same,"viability, T/C",[33],79.8%
same,"viability, T/C",[34],81.5%
same,"viability, T/C",[17],78%
same,"viability, T/C",[18],81.3%
same,"viability, T/C","second compound 10 µM, first compound 0.000316 µM",56.8%
same,"viability, T/C","second compound 10 µM, first compound 0.001 µM",57.8%
same,"viability, T/C",[35],56.9%
same,"viability, T/C",[36],61.9%
same,"viability, T/C",[21],58.7%
same,"viability, T/C",[22],58.9%
